Values joined by “and” are separate entries in the source; they are usually repeats but may differ in a detail not shown here. Equal entries are not always repeated.
Assays:
[1] = test system: S. minnesota SLH 157 (wild type, functional OM); test: MIL-based whole-cell extraction (capture, wash, back-extraction, plating); set-up: species or system Salmonella enterica; key to Relative Affinity for MIL: +++++: higher losses during wash step are due to lower cellular affinity for the MIL; ++++: higher losses during wash step are due to lower cellular affinity for the MIL; +++: higher losses during wash step are due to lower cellular affinity for the MIL; ++: higher losses during wash step are due to lower cellular affinity for the MIL; +: higher losses during wash step are due to lower cellular affinity for the MIL
Description: (§1) A universal schematic for MIL-based cell extraction is depicted in FIG. 7B. A 1 mL volume of diluted cell suspension was added to a flat-bottomed 4-mL screw cap glass vial. Fifteen microliters of either the Ni(II) or Dy(III) MIL was added and dispersed into microdroplets by vortex agitation for 30 s. The aqueous phase was decanted following dispersive extraction, and the MIL was subjected to a brief wash step using 1 mL of nuclease-free water (Integrated DNA Technologies, Coralville, IA, USA) to ensure adequate removal of loosely or incidentally bound cells. After washing, release of viable cells from the MIL extraction phase was carried out using a “back-extraction” step accomplished through addition of 1 mL of an ionically-rich nutritive medium comprised of 20 g L^−1 tryptone and 10 g L^−1 NaCl, followed by a 120 s vortex step. After back-extraction, aliquots of the cell-enriched back-extraction medium were enumerated using the track dilution method using 100×100 mm square, gridded TSA, BSA, CA or VRBGA plates.
(§2) Following back-extraction, aliquots of the cell-enriched back-extraction medium were serially diluted in 0.1% peptone water and a 10 μL aliquot of each dilution was applied to a separate lane on square plates containing an appropriate agar medium. The plates were then tilted at an approximately 80° angle for 15 min to allow the droplets to travel toward the opposite end of the plate. The plates were incubated for 24 h at 37° C. (TSA, VRBGA), for 48 h at 37° C. (BSA) or for 24 h at 37° C. (CA). Colonies were counted and colony forming units (CFU) were determined. The enrichment factor (EF) for MIL-based extraction was calculated using Equation 1, where CMIL represents the concentration of bacteria in suspension following extraction using the MIL and CS is the initial concentration of bacteria in the sample.
(§3) To further evaluate the importance of the OM to serve as a surface to which the MIL can bind and as a protective layer from potentially deleterious activities of the Ni(II) MIL, capture and recovery of two physiological variants of S. minnesota was performed. The strains compared were S. minnesota SLH 157 (wild type, functional OM) and S. minnesota mR613 (OM mutant). […] Compared to the wild type, cells with a truncated OM are dramatically more susceptible to damage from antimicrobial agents or chemically harsh environments. To study the effect of the Ni(II) MIL exposure on the recovery of wild type and mutant strains of S. minnesota, a 1 mL aliquot of TSB was inoculated with 1×10^5 CFU mL^−1 of bacteria and spiked with 15 μL of the Ni(II) MIL. MIL-based extraction was performed and 10 μL aliquots of the back-extraction solution were enumerated using TSA and BSA plates. Average CFU counts were compared to a standard that was not exposed to the Ni(II) MIL. Extraction and recovery of S. typhimurium was also assessed. Enrichment factors were calculated.
(§4) Although all of the strains assessed were capable of being enriched by the MIL, some species were physically enriched to greater extents than others with extraction. In order to further examine the cause for this finding, the number of captured cells lost to the wash solution was investigated. The wash step is performed after the MIL enrichment step in order to remove any incidentally-adsorbed bacteria prior to back-extraction. It is hypothesized that the cells with lower enrichment factors have lower affinities for the MIL and are therefore lost in greater number to the wash solution than those having higher enrichment factors. […] The percent-loss during the wash step ranged from 47-79%. […] EF data from Table 4 for three overlapping Salmonella strains are superimposed to highlight trends in percent-loss, relative affinity and EF.

[2] = test system: S. minnesota mR613 (OM mutant, deep rough); test: as above; set-up: species or system Salmonella enterica; key to Relative Affinity for MIL: +++++: higher losses during wash step are due to lower cellular affinity for the MIL; ++++: higher losses during wash step are due to lower cellular affinity for the MIL; +++: higher losses during wash step are due to lower cellular affinity for the MIL; ++: higher losses during wash step are due to lower cellular affinity for the MIL; +: higher losses during wash step are due to lower cellular affinity for the MIL; details: for Percent-Loss: cells lost to wash solution
Description: as §1, §2, §3, §4

[3] = test system: S. enterica subsp. arizonae; type: cell-based, Salmonella enterica; set-up: key to Relative Affinity for MIL: +++++: higher losses during wash step are due to lower cellular affinity for the MIL; ++++: higher losses during wash step are due to lower cellular affinity for the MIL; +++: higher losses during wash step are due to lower cellular affinity for the MIL; ++: higher losses during wash step are due to lower cellular affinity for the MIL; +: higher losses during wash step are due to lower cellular affinity for the MIL
Description: as §1, §2
(§5) In order to explore the broader utility of our approach, evaluation of additional cell types is needed. We began this extended evaluation of the Ni(II) MIL with seven representative DNA subgroups of Salmonella and eight strains of E. coli O157:H7. Briefly, a 1 mL aliquot of TSB was inoculated with 1×10^6 CFU mL^−1 of bacteria, and spiked with 15 μL of the Ni(II) MIL. MIL-based extraction was performed and 10 μL aliquots of the back-extraction solution were enumerated using TSA and BSA plates (Salmonella) or TSA plates (E. coli O157:H7). […] We later determined that VRBGA was a suitable common medium for this purpose and used this in our statistical analysis. Average CFU counts were compared to standards that were not exposed to the Ni(II) MIL. Enrichment factors were calculated for Salmonella on both non-selective (TSA) and selective agars (BSA) and for E. coli O157:H7 on non-selective agar (TSA). […] Note: As BSA is a Salmonella-specific agar E. coli O157:H7 was not plated to BSA in this example.
as §4

[4] = test system: S. enterica subsp. diarizonae; type: cell-based, Salmonella enterica; set-up: key to Relative Affinity for MIL: +++++: higher losses during wash step are due to lower cellular affinity for the MIL; ++++: higher losses during wash step are due to lower cellular affinity for the MIL; +++: higher losses during wash step are due to lower cellular affinity for the MIL; ++: higher losses during wash step are due to lower cellular affinity for the MIL; +: higher losses during wash step are due to lower cellular affinity for the MIL
Description: as §1, §2, §5, §4

[5] = test system: E. coli O157:H7 N549-3-1; test: MIL-based whole-cell extraction; set-up: species or system Escherichia coli; details: 1×10^6 CFU mL^−1 in TSB, 15 μL MIL
Description: as §1, §2, §5

[6] = 1×10^5 CFU mL^−1 in TSB, 15 μL MIL
[7] = ranked from percent-loss in wash step
[8] = 1×10^6 CFU mL^−1 in TSB, 15 μL MIL

**Q.** What does the source list for `CCCCCCCCCCCCCC[P+](CCCCCC)(CCCCCC)CCCCCC.O=C([CH-]C(=O)C(F)(F)F)C(F)(F)F.O=C([CH-]C(=O)C(F)(F)F)C(F)(F)F.O=C([CH-]C(=O)C(F)(F)F)C(F)(F)F.[Ni+2]` [Ni(II) MIL, [P66614^+][Ni(hfacac)3^−]]?
**A.** Enrichment Factor (BSA) [1, 6]: 11; Enrichment Factor (TSA) [1, 6]: 17; Percent-Loss ([1]; cells lost to wash solution): 59 ± 3%; Relative Affinity for MIL [1, 7]: +++; Enrichment Factor (TSA) [2, 6]: 4; Percent-Loss [2]: 69 ± 5%; Percent-Loss ([2]; listed as MIL): 79%; antimicrobial effect of capture process on deep rough mutant ([2]; post-capture growth behavior on TSA): not overtly antimicrobial; Relative Affinity for MIL [2, 7]: ++; Relative Affinity for MIL [3]: +; Enrichment Factor (BSA) [3, 8]: 2 and 4; Enrichment Factor (TSA) [3, 8]: 3; Percent-Loss ([3]; cells lost to wash solution): 79 ± 1%; Relative Affinity for MIL [4]: +++++; Enrichment Factor (BSA) [4, 8]: 11; Enrichment Factor (TSA) [4, 8]: 7; Percent-Loss ([4]; cells lost to wash solution: wash counts / (wash + back-extraction counts) × 100): 47 ± 7%; Enrichment Factor (TSA) [5]: 8

Reference: patent US12416052B2, “Capturing, concentrating, and detecting microbes in a sample using magnetic ionic liquids and recombinase polymerase amplification” (priority 2019, dated 2025)
